The assay concerns the target T1, H-2K^b (Mus musculus, UniProt P01901).
T1 construct: endogenous in cells; host or cells: RMA-S cells (TAP-deficient)
T1 sequence (P01901 22-369): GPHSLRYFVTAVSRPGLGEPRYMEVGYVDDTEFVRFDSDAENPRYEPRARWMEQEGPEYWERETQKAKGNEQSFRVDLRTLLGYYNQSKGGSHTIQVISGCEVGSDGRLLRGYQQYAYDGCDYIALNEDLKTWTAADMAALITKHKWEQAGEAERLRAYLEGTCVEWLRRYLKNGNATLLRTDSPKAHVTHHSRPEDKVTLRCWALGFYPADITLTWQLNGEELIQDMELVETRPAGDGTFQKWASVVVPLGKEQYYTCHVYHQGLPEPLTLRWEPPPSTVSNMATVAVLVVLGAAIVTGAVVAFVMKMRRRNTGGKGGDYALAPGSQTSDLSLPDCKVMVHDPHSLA
T1 sequence (P01887 21-119 partner): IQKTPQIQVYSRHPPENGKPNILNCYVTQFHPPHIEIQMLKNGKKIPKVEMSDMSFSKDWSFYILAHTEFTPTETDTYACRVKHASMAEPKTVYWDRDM
Description: cell-based. The conditions noted are these: sarsWT concentration scan; 1 h 26 °C then 6 h 37 °C; APC anti-mouse H-2K^b antibody, flow cytometry; Figure S2, mean ± SD n = 3; read-out: EC50 of pMHC stabilization on RMA-S cells. (In general: In flow cytometry, cells or beads pass a laser one at a time.)

Where no end group is shown, it is not given here.

ESIVRFPNI [sarsWT]: the EC50 (usually the concentration giving half of the maximal effect) was 1700 nM.

Source of the values: PMC11420952, “A Chemical Approach to Assess the Impact of Post-translational Modification on MHC Peptide Binding and Effector Cell Engagement” (ACS Chemical Biology, 2024).
